The text below walks through data of ChEMBL document CHEMBL1201862, “PubChem BioAssay data set” (2004).

The structures appear in SMILES notation.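 Assay format: 96-well plates, 48-hour exposure. GI50: concentration for 50% inhibition of growth.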 Active and inactive are the calls of the source. No stated cut-off is given here; in the data, active = GI50 up to about 1.1 µM and inactive = higher. Bounds are passed on as bounds.

Among the test systems are SR; SF-539; IGROV-1; SNB-75; Malme-3M; HCC 2998; SK-MEL-2; HOP-92; M14; NCI-H460; RPMI-8226; SF-268; HCT-15; TK-10; DU-145; OVCAR-4; MDA-MB-435; MOLT-4; OVCAR-3; SF-295.
Test in all cases: growth of human tumour cells (NCI), 48 h

On to `Cc1cc(=O)oc2cc(O)c(CN(C)CC(=O)O)cc12`, for which the GI50 with SR, in the assay with SF-539, in the assay on IGROV-1, with SNB-75, with Malme-3M and with HCC 2998 was > 100 µM (inactive) throughout. Besides, the GI50 with SK-MEL-2, with HOP-92, with M14, with NCI-H460, with RPMI-8226 and in the assay on SF-268 was > 100 µM (inactive) throughout. The GI50 in the assay on HCT-15 is > 100 µM; with TK-10 it was > 100 µM (inactive); with DU-145 it was > 100 µM (inactive); with OVCAR-4 it was > 100 µM (inactive); in the assay on MDA-MB-435, > 100 µM (inactive).
For the molecule `Cc1nc(O)c(Cc2ccccc2O)c(-c2ccccc2)n1`, the GI50 was > 100 µM (inactive) in the assay with SR; > 100 µM (inactive) with MOLT-4; > 100 µM (inactive) in the assay on SF-539; > 100 µM (inactive) in the assay on IGROV-1; 22.4 µM (inactive) with SNB-75; > 100 µM (inactive) in the assay with Malme-3M. In addition, the GI50 with SK-MEL-2, in the assay on HOP-92, in the assay with M14, in the assay on NCI-H460, in the assay with OVCAR-3 and in the assay with SF-295 was > 100 µM (inactive) each time. The GI50 was > 100 µM (inactive) in the assay on RPMI-8226; > 100 µM (inactive) in the assay on SF-268; > 100 µM with HCT-15; > 100 µM (inactive) with TK-10; > 100 µM (inactive) with DU-145; > 100 µM (inactive) with OVCAR-4. For the same molecule, the GI50 in the assay with MDA-MB-435 was > 100 µM (inactive).
With `CCOC(=O)Nc1cc(NC(/C=N/NC(C)=O)C(=O)OCC)c(OC)cc1NC(C)=O` (centres undefined), the GI50 in the assay on SR, with MOLT-4, with IGROV-1, in the assay with SNB-75, with Malme-3M and in the assay with HCC 2998 was > 100 µM (inactive) throughout. The GI50 in the assay with SK-MEL-2, in the assay with HOP-92, in the assay with M14, with NCI-H460, in the assay on OVCAR-3 and in the assay with SF-295 was > 100 µM (inactive) throughout. The GI50 is > 100 µM (inactive) in the assay on RPMI-8226; > 100 µM (inactive) with SF-268; > 100 µM in the assay on HCT-15; > 100 µM (inactive) in the assay with TK-10; > 100 µM (inactive) in the assay with DU-145; > 100 µM (inactive) with OVCAR-4. Also, the GI50 in the assay with MDA-MB-435 was > 100 µM (inactive).
For the molecule `COc1ccc2nc(-c3ccccc3)cc(OCC(=O)O)c2c1`, the GI50 with SR, in the assay with MOLT-4, in the assay on SF-539, with IGROV-1, with SNB-75 and in the assay on Malme-3M was > 100 µM (inactive) throughout. For the same molecule, the GI50 in the assay with HCC 2998, with SK-MEL-2, in the assay on HOP-92, in the assay on M14, with NCI-H460 and with OVCAR-3 was > 100 µM (inactive) in each case. The GI50 was > 100 µM (inactive) in the assay on SF-295; > 100 µM (inactive) in the assay with RPMI-8226; > 100 µM (inactive) with SF-268; > 100 µM with HCT-15; > 100 µM (inactive) in the assay on TK-10; > 100 µM (inactive) with DU-145. For the same molecule, the GI50 with MDA-MB-435 was > 100 µM (inactive).
In the case of `Cc1ccc(S(=O)(=O)N2CCCSCCSCCCSCC2)cc1`, the GI50 in the assay with SR was > 100 µM (inactive); in the assay on MOLT-4, > 100 µM (inactive); in the assay on SF-539, > 100 µM (inactive); in the assay on IGROV-1, > 100 µM (inactive); in the assay on SNB-75, 86.7 µM (inactive); in the assay on HCC 2998, > 100 µM (inactive). The GI50 in the assay with HOP-92, in the assay with M14, with NCI-H460, with OVCAR-3, in the assay with SF-295 and in the assay on SF-268 was > 100 µM (inactive) in each case. Further, the GI50 is > 100 µM in the assay with HCT-15; > 100 µM (inactive) in the assay with TK-10; > 100 µM (inactive) in the assay on DU-145; > 100 µM (inactive) in the assay on OVCAR-4; > 100 µM (inactive) in the assay with MDA-MB-435.
In the case of `COc1cc(C2c3cc4c(cc3C(O)C3CCC(=O)N23)OCO4)cc(OC)c1OC` (centres undefined), the GI50 in the assay on SR was 39.9 µM (inactive); in the assay on MOLT-4 it was 32.2 µM (inactive); in the assay on SF-539, > 10 µM (inactive); in the assay on IGROV-1, 39.5 µM (inactive); in the assay with SNB-75 it was 26.7 µM (inactive); with Malme-3M, > 100 µM (inactive). The GI50 in the assay with HCC 2998 is 34.4 µM (inactive); in the assay on SK-MEL-2 it was 27 µM (inactive); in the assay with HOP-92 it was 33 µM (inactive); in the assay with M14, 38.9 µM (inactive); with NCI-H460, 39.4 µM (inactive); in the assay on OVCAR-3, 31.6 µM (inactive). The GI50 in the assay on SF-295 was 6.68 µM (inactive); in the assay on RPMI-8226 it was 27.1 µM (inactive); in the assay on SF-268, 49.9 µM (inactive); with HCT-15 it was 31 µM; in the assay on TK-10, 69.2 µM (inactive); in the assay with DU-145, 51.8 µM (inactive). The GI50 in the assay on MDA-MB-435 is 3.54 µM (inactive).
As for `CO[C@@H]1C[C@H]2[C@@H]3CC[C@H]([C@H](C)COC(C)=O)[C@@]3(C)CC[C@@H]2[C@@]2(C)CC[C@H]3C[C@]312`, the GI50 in the assay with SR, with MOLT-4, in the assay on SF-539, in the assay with IGROV-1, in the assay with SNB-75 and in the assay with Malme-3M was > 100 µM (inactive) each time. For the same molecule, the GI50 in the assay on HCC 2998 is > 100 µM (inactive); in the assay with HOP-92, 73.5 µM (inactive); with M14 it was > 100 µM (inactive); with NCI-H460 it was > 100 µM (inactive); in the assay with OVCAR-3, > 100 µM (inactive); in the assay on SF-295, > 100 µM (inactive). Moreover, the GI50 in the assay with RPMI-8226 is > 100 µM (inactive); in the assay with SF-268, > 100 µM (inactive); in the assay on HCT-15 it was > 100 µM; with TK-10, > 100 µM (inactive); with DU-145, > 100 µM (inactive); with OVCAR-4 it was > 100 µM (inactive). Moreover, the GI50 in the assay with MDA-MB-435 was > 100 µM (inactive).
Regarding `CN/C(=N\c1ccc(OC)c2ccccc12)SC`, the GI50 with SR, in the assay on MOLT-4, in the assay with SF-539, in the assay with IGROV-1, in the assay on SNB-75 and in the assay with Malme-3M was > 10 µM (inactive) each time. Further, the GI50 is > 10 µM (inactive) with HCC 2998; > 10 µM (inactive) with HOP-92; > 10 µM (inactive) with M14; > 10 µM (inactive) with OVCAR-3; 7.43 µM (inactive) with SF-295; > 10 µM (inactive) with RPMI-8226. In addition, the GI50 in the assay with SF-268 is > 10 µM (inactive); in the assay with HCT-15, > 10 µM; in the assay with TK-10 it was > 10 µM (inactive); with DU-145, > 10 µM (inactive); in the assay on OVCAR-4, > 10 µM (inactive); with MDA-MB-435, > 10 µM (inactive).
For `CCOC(=O)c1ccc(NC(NC(=O)CC)(C(F)(F)F)C(F)(F)F)cc1`, the GI50 with SR is 14.1 µM (inactive); with MOLT-4, 55.5 µM (inactive); in the assay on SF-539, > 100 µM (inactive); with IGROV-1, > 100 µM (inactive); in the assay on SNB-75, > 100 µM (inactive); in the assay on Malme-3M, > 100 µM (inactive). The GI50 with HCC 2998, in the assay on SK-MEL-2, with HOP-92, with M14, in the assay on NCI-H460 and in the assay on OVCAR-3 was > 100 µM (inactive) throughout. The GI50 in the assay on SF-295 is > 100 µM (inactive); with RPMI-8226, > 100 µM (inactive); in the assay with SF-268, > 100 µM (inactive); with HCT-15, 97.1 µM; in the assay on TK-10 it was > 100 µM (inactive); in the assay with DU-145 it was > 100 µM (inactive). In the assay with MDA-MB-435, the GI50 is > 100 µM (inactive).
Turning to `CCOC(=O)c1c(O)cc(=O)[nH]c1N1CCOCC1`, the GI50 with SR, with MOLT-4, in the assay with SF-539, in the assay with IGROV-1, in the assay with SNB-75 and with HCC 2998 was > 100 µM (inactive) throughout. For the same molecule, the GI50 with SK-MEL-2, with HOP-92, in the assay with M14, in the assay on NCI-H460, in the assay on OVCAR-3 and with SF-295 was > 100 µM (inactive) throughout. Also, the GI50 with RPMI-8226 is > 100 µM (inactive); in the assay on HCT-15 it was > 100 µM; in the assay on DU-145 it was > 100 µM (inactive); with MDA-MB-435, > 100 µM (inactive).
Take `C#CCN(Cc1ccc2[nH]c(N)nc(=O)c2c1)c1ccc(C(=O)NC(CCC(=O)O)C(=O)O)cc1` (centres undefined): the GI50 in the assay on SR is > 100 µM (inactive); in the assay with MOLT-4, 5.4 µM (inactive); in the assay with SF-539, 0.506 µM (active); with IGROV-1 it was 62.1 µM (inactive); in the assay on Malme-3M, 47.5 µM (inactive); in the assay with HCC 2998, > 100 µM (inactive). For the same molecule, the GI50 with HOP-92 was 28.7 µM (inactive); in the assay with M14 it was 51.3 µM (inactive); with NCI-H460 it was 6.95 µM (inactive); in the assay with OVCAR-3 it was 9.71 µM (inactive); in the assay with SF-295, 34 µM (inactive); in the assay on RPMI-8226, 7.46 µM (inactive). Moreover, the GI50 was 17.5 µM (inactive) in the assay with SF-268; > 100 µM with HCT-15; 10.8 µM (inactive) in the assay with TK-10; 5.94 µM (inactive) with DU-145; > 100 µM (inactive) with MDA-MB-435.
